Measurements: US20230099344A1, “COMPOUNDS AND METHODS FOR THE TARGETED DEGRADATION OF IRAK-4” (Arvinas Operations, Inc., priority 2021, published 2023)

Target: T1, IRAK-4 (Homo sapiens, UniProt Q9NWZ3)
T1 sequence (Q9NWZ3 1-460): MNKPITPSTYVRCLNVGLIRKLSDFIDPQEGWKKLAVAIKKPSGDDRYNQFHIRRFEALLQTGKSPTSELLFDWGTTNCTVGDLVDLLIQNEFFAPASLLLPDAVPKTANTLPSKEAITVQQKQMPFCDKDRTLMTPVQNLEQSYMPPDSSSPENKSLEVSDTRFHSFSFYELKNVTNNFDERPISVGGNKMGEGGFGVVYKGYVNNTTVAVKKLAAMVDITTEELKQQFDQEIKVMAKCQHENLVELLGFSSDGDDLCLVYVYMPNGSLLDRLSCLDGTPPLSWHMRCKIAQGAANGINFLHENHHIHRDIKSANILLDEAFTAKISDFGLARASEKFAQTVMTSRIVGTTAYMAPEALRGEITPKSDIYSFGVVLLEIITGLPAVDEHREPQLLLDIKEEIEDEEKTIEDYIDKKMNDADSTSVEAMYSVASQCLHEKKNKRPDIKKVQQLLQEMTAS
Test: IRAK-4 ELISA, PBMC degradation
Assay type: cell-based
Set-up: endogenous in cells; host or cells: PBMC
Settings: treated overnight
Method in brief: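 Steps: seed cells (OCI-Ly10 1×10^6/ml; PBMC 2×10^6/ml); add compound the same day; incubate overnight; lyse; quantify IRAK-4 by matched-pair ELISA.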

Row | DC50 [nM] | Dmax [%] | PBMC DC90 | Compound | PBMC Dmax
1 | < 1 | 80 to 90 | A (A represents a DC90 value <10.0 nM) | O=C1CCC(N2C(=O)c3ccc(N4CC(F)(CN[C@H]5CC[C@H](n6cc7cc(NC(=O)c8cnn9cccnc89)c(OCC8CC8)cc7n6)CC5)C4)cc3C2=O)C(=O)N1 (stereo partly drawn) [Example 351] | –
2 | 1 to 5 | 80 to 90 | A (A represents a DC90 value <10.0 nM) | O=C1CCC(N2C(=O)c3ccc(N4CC(CN5CCC([C@H](F)CN6Cc7cc(NC(=O)c8cnn9cccnc89)c(N8CCOCC8)cc7C6=O)CC5)C4)cc3C2=O)C(=O)N1 (stereo partly drawn) [Example 412, N-(2-((2S)-2-(1-((1-(2-(2,6-dioxopiperidin-3-yl)-1,3-dioxoisoindolin-5-yl)azetidin-3-yl)methyl)piperidin-4-yl)-2-fluoroethyl)-6-morpholino-1-oxoisoindolin-5-yl)pyrazolo[1,5-a]pyrimidine-3-carboxamide] | –
3 | < 1 | ≥ 90 | A (A represents a DC90 value <10.0 nM) | CN(C1CN(c2ccc3c(c2)CN(C2CCC(=O)NC2=O)C3=O)C1)[C@H]1CC[C@H](n2cc3cc(NC(=O)c4cnn5cccnc45)c(OCC4CC4)cc3c2)CC1 (stereo partly drawn) [Example 324] | –
4 | < 1 | ≥ 90 | A (A represents a DC90 value <10.0 nM) | CC(C)Oc1cc2c(cc1NC(=O)c1cnn3cccnc13)CN(C1CCN(C[C@H]3CN(c4ccc5c(c4)C(=O)N(C4CCC(=O)NC4=O)C5=O)CCO3)CC1)C2=O (stereo partly drawn) [Example 79] | –
5 | < 1 | ≥ 90 | A (A represents a DC90 value <10.0 nM) | CC(C)Oc1cc2c(cc1NC(=O)c1cnn3cccnc13)CN(C1CCN(C[C@@H]3CN(c4ccc5c(c4)C(=O)N(C4CCC(=O)NC4=O)C5=O)CCO3)CC1)C2=O (stereo partly drawn) [Example 78] | –
6 | 5 to 10 | 80 to 90 | D (D represents a DC90 value ≥50 nM) | CC(C)Oc1cc2nn(C3CCN(CC4(F)CN(c5cccc6c5C(=O)N(C5CCC(=O)NC5=O)C6=O)C4)CC3)cc2cc1NC(=O)c1cnn2cccnc12 (stereo not drawn) [Example 271, N-(2-(1-((1-(2-(2,6-dioxopiperidin-3-yl)-1,3-dioxoisoindolin-4-yl)-3-fluoroazetidin-3-yl)methyl)piperidin-4-yl)-6-isopropoxy-2H-indazol-5-yl)pyrazolo[1,5-a]pyrimidine-3-carboxamide] | –
7 | < 1 | ≥ 90 | A (A represents a DC90 value <10.0 nM) | CC(C)Oc1cc2c(cc1NC(=O)c1cnn3cccnc13)CN(C[C@@H](F)C1CCN(CC3CCN(c4ccc5c(c4)CN(C4CCC(=O)NC4=O)C5=O)CC3)CC1)C2=O (stereo partly drawn) [Example 20] | –
8 | < 1 | ≥ 90 | A (A represents a DC90 value <10.0 nM) | COc1cc(N2CC(CN3CCC(N4Cc5cc(NC(=O)c6cnn7cccnc67)c(OC(C)C)cc5C4=O)CC3)C2)cc2c1C(=O)N(C1CCC(=O)NC1=O)C2 (stereo not drawn) [Example 21] | –
9 | < 1 | ≥ 90 | 122 nM | O=C1CCC(N2C(=O)c3ccc(N4CC(O)(CN5CCC(n6cc7cc(NC(=O)c8cnn9cccnc89)c(OCC8CC8)cc7n6)CC5)C4)cc3C2=O)C(=O)N1 (stereo not drawn) [Example 169] | –
10 | < 1 | ≥ 90 | A (A represents a DC90 value <10.0 nM) | CC(C)Oc1cc2nn(C3CCN(CCN4CCN(c5ccc6c(c5)C(=O)N(C5CCC(=O)NC5=O)C6=O)CC4)CC3)cc2cc1NC(=O)c1cnn2cccnc12 (stereo not drawn) [Example 137] | –
11 | < 1 | ≥ 90 | A (A represents a DC90 value <10.0 nM) | COc1cc(N2CC(CN3CCC(n4cc5cc(NC(=O)c6cnn7cccnc67)c(OCC6CC6)cc5n4)CC3)C2)cc2c1C(=O)N(C1CCC(=O)NC1=O)C2=O (stereo not drawn) [Example 131] | –
12 | < 1 | – | A (A represents a DC90 value <10.0 nM) | CC(C)Oc1cc2c(cc1NC(=O)c1cnn3cccnc13)CN([C@H]1CC[C@H](N3CC4(CN(c5ccc6c(c5)C(=O)N(C5CCC(=O)NC5=O)C6=O)C4)C3)CC1)C2=O (stereo partly drawn) [Example 68] | A (A represents a Dmax value ≥90)
13 | 5 to 10 | 80 to 90 | D (D represents a DC90 value ≥50 nM) | CC(C)Oc1cc2nn(C3CCN(CC4(F)CN(c5ccc6c(n5)C(=O)N(C5CCC(=O)NC5=O)C6=O)C4)CC3)cc2cc1NC(=O)c1cnn2cccnc12 (stereo not drawn) [Example 411, N-(2-(1-((1-(6-(2,6-dioxopiperidin-3-yl)-5,7-dioxo-6,7-dihydro-5H-pyrrolo[3,4-b]pyridin-2-yl)-3-fluoroazetidin-3-yl)methyl)piperidin-4-yl)-6-isopropoxy-2H-indazol-5-yl)pyrazolo[1,5-a]pyrimidine-3-carboxamide] | –
14 | 5 to 10 | 70 to 80 | D (D represents a DC90 value ≥50 nM) | CC(C)Oc1cc2c(cc1NC(=O)c1cnn3ccc(N4CCOCC4)nc13)CN(C1CCN(CC3CN(c4ccc5c(c4)C(=O)N(C4CCC(=O)NC4=O)C5=O)C3)CC1)C2=O (stereo not drawn) [Example 73] | –
15 | 1 to 5 | ≥ 90 | A (A represents a DC90 value <10.0 nM) | CC(C)Oc1cc2c(cc1NC(=O)c1cnn3cccnc13)CN([C@H]1CC[C@H](OC3CCN(c4ccc5c(c4)C(=O)N(C4CCC(=O)NC4=O)C5=O)CC3)CC1)C2=O (stereo partly drawn) [Example 65] | –
16 | < 1 | ≥ 90 | A (A represents a DC90 value <10.0 nM) | O=C1CCC(N2C(=O)c3ccc(N4CC(CN5CCC(n6cc7cc(NC(=O)c8cnn9cccnc89)c(OCC(F)F)cc7n6)CC5)C4)cc3C2=O)C(=O)N1 (stereo not drawn) [Example 235] | –
17 | < 1 | ≥ 90 | A (A represents a DC90 value <10.0 nM) | Cn1c(=O)n(C2CCC(=O)NC2=O)c2cccc(N3CC(CN4CCC(n5cc6cc(NC(=O)c7cnn8cccnc78)c(C7CC7)cc6n5)CC4)C3)c21 (stereo not drawn) [Example 383] | –
18 | < 1 | ≥ 90 | A (A represents a DC90 value <10.0 nM) | CC(C)Oc1cc2nn([C@H]3CC[C@H](N(C)C4CN(c5ccc6c(c5)C(=O)N(C5CCC(=O)NC5=O)C6=O)C4)CC3)cc2cc1NC(=O)c1cnn2cccnc12 (stereo partly drawn) [Example 318] | –
19 | 5 to 10 | 80 to 90 | D (D represents a DC90 value ≥50 nM) | CC(C)Oc1cc2c(cc1NC(=O)c1cnn3ccc(N4CCOCC4)nc13)CN(C1CCN(CC3CCN(c4ccc5c(c4)C(=O)N(C4CCC(=O)NC4=O)C5=O)CC3)CC1)C2=O (stereo not drawn) [Example 74] | –
20 | ≥ 10 | ≥ 90 | D (D represents a DC90 value ≥50 nM) | O=C1CCC(NC(=O)c2ccc(N3CC(F)(CN4CCC(N5Cc6cc(NC(=O)c7cnn8cccnc78)c(OCC7CC7)cc6C5=O)CC4)C3)cc2F)C(=O)N1 (stereo not drawn) [Example 298] | –
21 | < 1 | ≥ 90 | A (A represents a DC90 value <10.0 nM) | CC(C)Oc1cc2nn(C3CCN(CC4CN(c5ccc6c(c5)C(=O)N(C5CCC(=O)NC5=O)C6=O)C4)CC3)cc2cc1NC(=O)c1cnn2cccnc12 (stereo not drawn) [Example 187] | –
22 | 1 to 5 | 70 to 80 | D (D represents a DC90 value ≥50 nM) | CNc1ccn2ncc(C(=O)Nc3cc4cn(C5CCN(CC6(F)CN(c7ccc8c(c7)C(=O)N(C7CCC(=O)NC7=O)C8=O)C6)CC5)nc4cc3OCC3CC3)c2n1 (stereo not drawn) [Example 237] | –

Row | Compound | DC50 [nM] | Dmax [%] | PBMC DC90 | PBMC Dmax
23 | CC(C)Oc1cc2c(cc1NC(=O)c1cnn3cccnc13)CN(C1CCN(C(=O)C3CN(c4ccc5c(c4)C(=O)N(C4CCC(=O)NC4=O)C5=O)C3)CC1)C2=O (stereo not drawn) [Example 71] | 1 to 5 | ≥ 90 | B (B represents a DC90 value ≥10.0 nM and <25.0 nM) | –
24 | O=C1CCC(N2C(=O)c3ccc(N4CC(O[C@H]5CC[C@H](n6cc7cc(NC(=O)c8cnn9cccnc89)c(OCC8CC8)cc7n6)CC5)C4)cc3C2=O)C(=O)N1 (stereo partly drawn) [Example 183] | 1 to 5 | ≥ 90 | B (B represents a DC90 value ≥10.0 nM and <25.0 nM) | –
25 | CC(C)Oc1cc2nn(C3CCN(CC4(F)CN(c5cc6c(cn5)C(=O)N(C5CCC(=O)NC5=O)C6=O)C4)CC3)cc2cc1NC(=O)c1cnn2cccnc12 (stereo not drawn) [Example 422, N-(2-(1-((1-(2-(2,6-dioxopiperidin-3-yl)-1,3-dioxo-2,3-dihydro-1H-pyrrolo[3,4-c]pyridin-6-yl)-3-fluoroazetidin-3-yl)methyl)piperidin-4-yl)-6-isopropoxy-2H-indazol-5-yl)pyrazolo[1,5-a]pyrimidine-3-carboxamide] | 1 to 5 | 70 to 80 | C (C represents a DC90 value ≥25.0 nM and <50 nM) | –
26 | O=C1CCC(N2C(=O)c3ccc(N4CC(F)(CN5CCC(n6cc7cc(NC(=O)c8cnn9cccnc89)c(OCC(F)F)cc7n6)CC5)C4)cc3C2=O)C(=O)N1 (stereo not drawn) [Example 232] | 1 to 5 | – | C (C represents a DC90 value ≥25.0 nM and <50 nM) | B (B represents a Dmax value ≥80 and <90)
27 | CC(C)Oc1nc2c(cc1NC(=O)c1cnn3cccnc13)CN(C1CCN(CC3CN(c4ccc5c(c4)CN(C4CCC(=O)NC4=O)C5=O)C3)CC1)C2=O (stereo not drawn) [Example 401] | 1 to 5 | ≥ 90 | B (B represents a DC90 value ≥10.0 nM and <25.0 nM) | –
